Experimental data: patent US20240032541A1, “HERBICIDAL COMPOUNDS” (SYNGENTA CROP PROTECTION AG, priority 2020, published 2024)

Columns and labels:
Type in all cases: in vivo
[1] = tested on: Amaranthus retoflexus (AMARE); test: Post-emergence herbicide glasshouse test; settings: post-emergence (sprayed after 8 days cultivation), 250 g/ha, evaluated after 13 days
Procedure: (§1) Seeds of a variety of test species are sown in standard soil in pots Amaranthus retoflexus (AMARE), Echinochloa crus-galli (ECHCG), Setaria faberi (SETFA)). After cultivation for one day (pre-emergence) or after 8 days cultivation (post-emergence) under controlled conditions in a glasshouse (at 24/16° C., day/night; 14 hours light; 65% humidity), the plants are sprayed with an aqueous spray solution derived from the formulation of the technical active ingredient in acetone/water (50:50) solution containing 0.5% Tween 20 (polyoxyethelyene sorbitan monolaurate, CAS RN 9005-64-5). Compounds are applied at 250 g/ha unless otherwise stated. The test plants are then grown in a glasshouse under controlled conditions in a glasshouse (at 24/16° C., day/night; 14 hours light; 65% humidity) and watered twice daily. After 13 days for pre and post-emergence, the test is evaluated for the percentage damage caused to the plant. The biological activities are shown in the following table on a five-point scale (5=81-100%; 4=61-80%; 3=41-60%; 2=21-40%; 1=0-20%).

[2] = tested on: Echinochloa crus-galli (ECHCG); test: Post-emergence herbicide glasshouse test; settings: post-emergence (sprayed after 8 days cultivation), 250 g/ha, evaluated after 13 days
Procedure: as §1

Setaria faberi (SETFA) [3] = test: Post-emergence herbicide glasshouse test; settings: post-emergence (sprayed after 8 days cultivation), 250 g/ha, evaluated after 13 days
Procedure: as §1

[4] = tested on: Amaranthus retoflexus (AMARE); test: Pre-emergence herbicide glasshouse test; settings: pre-emergence (sprayed after one day cultivation), 250 g/ha, evaluated after 13 days
Procedure: as §1

[5] = tested on: Echinochloa crus-galli (ECHCG); test: Pre-emergence herbicide glasshouse test; settings: pre-emergence (sprayed after one day cultivation), 250 g/ha, evaluated after 13 days
Procedure: as §1

Setaria faberi (SETFA) [6] = test: Pre-emergence herbicide glasshouse test; settings: pre-emergence (sprayed after one day cultivation), 250 g/ha, evaluated after 13 days
Procedure: as §1

SMILES	percentage damage caused to the plant, five-point scale, AMARE [1]	percentage damage caused to the plant, five-point scale, ECHCG [2]	percentage damage caused to the plant, five-point scale, SETFA (Setaria faberi (SETFA) [3])	percentage damage caused to the plant, five-point scale, AMARE [4]	percentage damage caused to the plant, five-point scale, ECHCG [5]	percentage damage caused to the plant, five-point scale, SETFA (Setaria faberi (SETFA) [6])
Clc1cnc(Oc2cccc3cccc(Oc4ncc(Cl)cn4)c23)nc1 [Compound 1.001, 5-CHLORO-2-[[8-(5-CHLOROPYRIMIDIN-2-YL)OXY-1-NAPHTHYL]OXY]PYRIMIDINE]	3 (3=41-60%)	4 (4=61-80%)	4 (4=61-80%)	3 (3=41-60%)	3 (3=41-60%)	4 (4=61-80%)
FC(F)(F)CCCc1cccc2cccc(Oc3ncc(Cl)cn3)c12 [Compound 1.002, 5-chloro-2-[[8-(4,4,4-trifluorobutyl)-1-naphthyl]oxy]pyrimidine]	3 (3=41-60%)	2 (2=21-40%)	3 (3=41-60%)	1 (1=0-20%)	1 (1=0-20%)	1 (1=0-20%)
FC(F)(F)CCCc1ncnc2cccc(Oc3ncc(Cl)cn3)c12 [Compound 1.003, 5-(5-chloropyrimidin-2-yl)oxy-4-(4,4,4-trifluorobutyl)quinazoline]	5 (5=81-100%)	3 (3=41-60%)	3 (3=41-60%)	5 (5=81-100%)	5 (5=81-100%)	5 (5=81-100%)
CCCCc1nc(C(F)(F)F)nc2cccc(Oc3ncc(Cl)cn3)c12 [Compound 1.005]	5 (5=81-100%)	5 (5=81-100%)	5 (5=81-100%)	5 (5=81-100%)	5 (5=81-100%)	5 (5=81-100%)
FC(F)(F)CCOc1nc(C(F)(F)F)nc2cccc(Oc3ncc(Cl)cn3)c12 [Compound 1.006, 5-(5-chloropyrimidin-2-yl)oxy-2-(trifluoromethyl)-4-(3,3,3-trifluoropropoxy)quinazoline]	5 (5=81-100%)	3 (3=41-60%)	3 (3=41-60%)	5 (5=81-100%)	3 (3=41-60%)	5 (5=81-100%)
Cc1nc(OCCC(F)(F)F)c2c(Oc3ncc(Cl)cn3)cccc2n1 [Compound 1.007]	3 (3=41-60%)	1 (1=0-20%)	1 (1=0-20%)	2 (2=21-40%)	1 (1=0-20%)	3 (3=41-60%)
FC(F)(F)CCOc1ncnc2cccc(Oc3ncc(Cl)cn3)c12 [Compound 1.008]	3 (3=41-60%)	1 (1=0-20%)	1 (1=0-20%)	5 (5=81-100%)	1 (1=0-20%)	5 (5=81-100%)
FC(F)(F)CCOc1nccc2cccc(Oc3ncc(Cl)cn3)c12 [Compound 1.009]	1 (1=0-20%)	1 (1=0-20%)	1 (1=0-20%)	1 (1=0-20%)	1 (1=0-20%)	1 (1=0-20%)
Fc1cnc(Oc2cccc3nc(C(F)(F)F)nc(CCCC(F)(F)F)c23)nc1 [Compound 1.011]	5 (5=81-100%)	5 (5=81-100%)	5 (5=81-100%)	5 (5=81-100%)	5 (5=81-100%)	5 (5=81-100%)
FC(F)(F)CCCc1nccc2cccc(Oc3ncc(Cl)cn3)c12 [Compound 1.012, 8-(5-chloropyrimidin-2-yl)oxy-1-(4,4,4-trifluorobutyl)isoquinoline]	4 (4=61-80%)	4 (4=61-80%)	4 (4=61-80%)	4 (4=61-80%)	5 (5=81-100%)	5 (5=81-100%)
Cc1nc(CCCC(F)(F)F)c2c(Oc3ncc(Cl)cn3)cccc2n1 [Compound 1.013, 5-(5-chloropyrimidin-2-yl)oxy-2-methyl-4-(4,4,4-trifluorobutyl)quinazoline]	3 (3=41-60%)	4 (4=61-80%)	4 (4=61-80%)	3 (3=41-60%)	4 (4=61-80%)	5 (5=81-100%)
COc1nc(CCCC(F)(F)F)c2c(Oc3ncc(Cl)cn3)cccc2n1 [Compound 1.014, 5-(5-chloropyrimidin-2-yl)oxy-2-methoxy-4-(4,4,4-trifluorobutyl)quinazoline]	5 (5=81-100%)	5 (5=81-100%)	5 (5=81-100%)	5 (5=81-100%)	5 (5=81-100%)	5 (5=81-100%)
FC(F)(F)CCCc1cc(C(F)(F)F)nc2cccc(Oc3ncc(Cl)cn3)c12 [Compound 1.015, 5-(5-chloropyrimidin-2-yl)oxy-4-(4,4,4-trifluorobutyl)-2-(trifluoromethyl)quinoline]	5 (5=81-100%)	4 (4=61-80%)	4 (4=61-80%)	5 (5=81-100%)	5 (5=81-100%)	5 (5=81-100%)
Cc1nc(CCCC(F)(F)F)c2c(Oc3ncc(Cl)cn3)ccc(Cl)c2n1 [Compound 1.019, 8-chloro-5-(5-chloropyrimidin-2-yl)oxy-2-methyl-4-(4,4,4-trifluorobutyl)quinazoline]	4 (4=61-80%)	3 (3=41-60%)	2 (2=21-40%)	2 (2=21-40%)	4 (4=61-80%)	4 (4=61-80%)
